The target of experiment [1] is T1, Dihydrofolate reductase (Homo sapiens, UniProt P00374).
T1 sequence (P00374 whole entry): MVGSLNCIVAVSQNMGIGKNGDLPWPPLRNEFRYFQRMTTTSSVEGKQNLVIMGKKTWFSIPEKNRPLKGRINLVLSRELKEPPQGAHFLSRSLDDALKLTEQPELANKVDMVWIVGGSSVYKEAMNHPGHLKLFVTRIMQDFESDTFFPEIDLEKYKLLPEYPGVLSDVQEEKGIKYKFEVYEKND
Briefly: Inhibitory compound against Wild-type human DHFR.

Experiment [2] concerns the target Dihydrofolate reductase (Homo sapiens, UniProt P00374). The experiment is described as follows: Inhibitory activity against Leu22-Phe mutant human Dihydrofolate reductase.
For experiment [3], the target named is T2, Dihydrofolate reductase (Pneumocystis carinii, UniProt P16184).
T2 sequence (P16184 whole entry): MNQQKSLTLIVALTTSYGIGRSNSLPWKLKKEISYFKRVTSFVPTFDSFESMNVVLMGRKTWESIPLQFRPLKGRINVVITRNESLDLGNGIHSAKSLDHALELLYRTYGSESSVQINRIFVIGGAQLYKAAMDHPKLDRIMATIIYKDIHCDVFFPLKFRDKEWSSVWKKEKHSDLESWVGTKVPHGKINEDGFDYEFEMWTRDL
Description: Inhibitory activity against Pneumocystis carinii Dihydrofolate reductase

For experiment [4], the target named is T3, Bifunctional dihydrofolate reductase-thymidylate synthase (Toxoplasma gondii, UniProt Q07422).
T3 sequence (Q07422 whole entry): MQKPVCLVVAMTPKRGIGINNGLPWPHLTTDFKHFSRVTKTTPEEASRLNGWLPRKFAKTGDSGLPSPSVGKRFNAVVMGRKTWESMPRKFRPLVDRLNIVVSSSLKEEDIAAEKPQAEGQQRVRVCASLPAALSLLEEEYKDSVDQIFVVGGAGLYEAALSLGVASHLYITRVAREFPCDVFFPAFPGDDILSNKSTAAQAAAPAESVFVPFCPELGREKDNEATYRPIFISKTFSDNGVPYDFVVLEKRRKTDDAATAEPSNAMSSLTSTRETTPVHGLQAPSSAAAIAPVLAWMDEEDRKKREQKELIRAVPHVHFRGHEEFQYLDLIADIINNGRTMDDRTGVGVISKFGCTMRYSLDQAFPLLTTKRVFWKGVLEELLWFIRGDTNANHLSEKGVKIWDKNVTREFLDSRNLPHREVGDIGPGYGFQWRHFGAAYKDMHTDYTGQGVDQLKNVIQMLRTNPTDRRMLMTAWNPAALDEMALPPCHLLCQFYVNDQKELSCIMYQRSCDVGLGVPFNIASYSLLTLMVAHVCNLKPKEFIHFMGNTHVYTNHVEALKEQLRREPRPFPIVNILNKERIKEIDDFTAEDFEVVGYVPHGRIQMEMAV
Description: Inhibitory activity against Toxoplasma gondii Dihydrofolate reductase

The target in experiment [5] is T4, Dihydrofolate reductase (Rattus norvegicus, UniProt Q920D2).
T4 sequence (Q920D2 whole entry): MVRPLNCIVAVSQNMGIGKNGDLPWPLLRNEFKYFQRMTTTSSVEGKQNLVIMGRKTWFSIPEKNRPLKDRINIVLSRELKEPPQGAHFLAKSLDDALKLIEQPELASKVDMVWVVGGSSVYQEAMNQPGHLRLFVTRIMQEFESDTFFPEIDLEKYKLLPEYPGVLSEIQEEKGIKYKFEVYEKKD
Description: Inhibitory activity against rat liver Dihydrofolate reductase

The target in experiment [6] is T1, Dihydrofolate reductase. Briefly: Inhibitory activity against Wild-type human DHFR.

Structures are written as SMILES.

As for `COc1cc(NCc2cccc3nc(N)nc(N)c23)cc(OC)c1OC`, the figures for the inhibition constant (Ki) on Dihydrofolate reductase [1] and at Dihydrofolate reductase [2] were above 500 nM and 310 nM, respectively. The 50% inhibitory concentration (IC50) (at Dihydrofolate reductase [3]; in experiment [4]; at Dihydrofolate reductase [5]) was above 20000 nM in each case.
`Nc1nc(N)c2c(/C=C/c3ccccc3)cccc2n1` gave a Ki at Dihydrofolate reductase [2] of 1.8 nM. For the same molecule, the figures for the IC50 (on Dihydrofolate reductase [3]; in experiment [4]; against Dihydrofolate reductase [5]) were 10000 nM, 1200 nM and 1500 nM, respectively.
Consider `COc1cc(CCc2cccc3nc(N)nc(N)c23)cc(OC)c1OC`, for which the Ki at Dihydrofolate reductase [1] worked out at 72 nM; on Dihydrofolate reductase [2], 4.3 nM. In addition, the IC50 worked out at 14000 nM at Dihydrofolate reductase [3], 930 nM in experiment [4] and 3700 nM on Dihydrofolate reductase [5].
As for `COc1ccc(OC)c(C#Cc2cccc3nc(N)nc(N)c23)c1`, the Ki at Dihydrofolate reductase [1] is above 500 nM; on Dihydrofolate reductase [2], 140 nM. The half-maximal inhibitory concentration (IC50) (at Dihydrofolate reductase [3]; in experiment [4]; against Dihydrofolate reductase [5]) was above 18000 nM each time.
With `Nc1nc(N)c2c(CNc3ccc(C(=O)NC(CCC(=O)O)C(=O)O)cc3)cccc2n1` (centres undefined), the Ki on Dihydrofolate reductase [2] turned out to be 2.7 nM; on Dihydrofolate reductase [6], 0.54 nM.
As for `COc1ccc(OC)c(Cc2cnc3nc(N)nc(N)c3c2C)c1` [PIRITREXIM], the Ki at Dihydrofolate reductase [2] came out at 38 nM; at Dihydrofolate reductase [6], 33 nM.
In the case of `COc1ccc(OC)c(CCc2cccc3nc(N)nc(N)c23)c1`, the Ki came to 41 nM on Dihydrofolate reductase [1] and 4.2 nM on Dihydrofolate reductase [2]. Also, the results for the concentration for half-maximal inhibition (IC50) (at Dihydrofolate reductase [3]; in experiment [4]; on Dihydrofolate reductase [5]) were 19000 nM, 5900 nM and 4100 nM, respectively.
For `Nc1nc(N)c2c(C#Cc3ccccc3)cccc2n1`, the Ki is 96.3 nM at Dihydrofolate reductase [2] and above 500 nM on Dihydrofolate reductase [6]. Besides, the IC50 (against Dihydrofolate reductase [3]; in experiment [4]; against Dihydrofolate reductase [5]) was above 30000 nM each time.
For `COc1ccc(OC)c(N(C)Cc2cccc3nc(N)nc(N)c23)c1`, the inhibition constant Ki at Dihydrofolate reductase [1] was above 500 nM; on Dihydrofolate reductase [2], 250 nM. Besides, the 50% inhibitory concentration (IC50) on Dihydrofolate reductase [3] was above 40000 nM; in experiment [4], above 40000 nM; on Dihydrofolate reductase [5], 84000 nM.
Consider `COc1ccc(OC)c(NCc2cccc3nc(N)nc(N)c23)c1`, for which, on Dihydrofolate reductase [2], the affinity corresponds to a Ki of 33 nM. Moreover, the half-maximal inhibitory concentration (IC50) (against Dihydrofolate reductase [3]; in experiment [4]; on Dihydrofolate reductase [5]) was above 5000 nM each time.
Turning to `Nc1nc(N)c2c(CCc3ccccc3)cccc2n1`, the inhibitory constant (Ki) on Dihydrofolate reductase [1] stood at 23 nM; at Dihydrofolate reductase [2], 2.9 nM. The IC50 against Dihydrofolate reductase [3] was determined as 3200 nM; in experiment [4] it was 370 nM; against Dihydrofolate reductase [5], 510 nM.
As for `Nc1nc(N)c2cc(CNc3ccc(C(=O)NC(CCC(=O)O)C(=O)O)cc3)ccc2n1` (centres undefined), the values for the inhibition constant Ki at Dihydrofolate reductase [2] and on Dihydrofolate reductase [6] were 0.01 nM and 0.00089 nM, respectively.
Regarding `COc1cc(N(C)Cc2cccc3nc(N)nc(N)c23)cc(OC)c1OC`, the inhibitory constant (Ki) at Dihydrofolate reductase [1] is above 500 nM; at Dihydrofolate reductase [2], 49 nM. Moreover, the values for the concentration for half-maximal inhibition (IC50) (against Dihydrofolate reductase [3]; in experiment [4]; on Dihydrofolate reductase [5]) were above 20000 nM, above 20000 nM and 53000 nM, respectively.

A word on the Ki: it is a measure of affinity in units of concentration, obtained from inhibition or displacement. A lower Ki goes with a stronger hold on the target. The IC50 is the concentration that inhibits the measured activity by half. Lower therefore signals greater potency.

For the origin of these results see ChEMBL document CHEMBL1128249, “2,4-Diamino-5-substituted-quinazolines as inhibitors of a human dihydrofolate reductase with a site-directed mutation at position 22 and of the dihydrofolate reductases from Pneumocystis carinii and Toxoplasma gondii” (J Med Chem, 1995).
